Values joined by “and” are separate entries in the source; they are usually repeats but may differ in a detail not shown here. Identical values can stand only once. Like-named read-outs stand apart in the source and are kept apart here.
Experiments:
rats = conditions: cited from earlier work
[1] = cited from earlier work
[2] = in vivo; cited from earlier work
CRS mice [3] = test: Elevated Plus Maze (EPM) in chronic restraint stress mouse model; assay type: in vivo, BALB/c mice; conditions: i.p., CBD 10 mg/kg, CBC 20 mg/kg, or both
Procedure: (§1) D0-D14: Development of Depression Model by Chronic Restraint Stimulation (CRS) 1 hour per day.
(§2) D15: Treatment of Control and CRS mice (i.p injection of Cannabinoids or Vehicle).
D16: Elevated plus maze test (EPM) (Replicate 1).
D17: Elevated plus maze test (EPM) (Replicate 2).
(§3) Mouse Species. Adult male BALB/c mice were purchased from Charles River Laboratories.
(§4) Distress Model. Adult male BALB/c mice weighing 20-30 g were used for these experiments. Total 160 animals=10 animals/group×8 treatment groups×2 replicates. The mice groups were as following: • 1. Stress Group: Chronic Restraint Stimulation (CRS): N=80 mice • 2. Control Group: No distress […] CRS: N=80 mice
(§5) Group 2—Treatment with CBD (10 mg/kg)
(§6) Group 3—Treatment with CBC (20 mg/kg)
(§7) Group 4—Co-Treatment CBD (10 mg/kg)+CBC (20 mg/kg)
(§8) • Forced Swim Test (FST) • Elevated Plus Maze (EPM) • Open-Field Test (OFT) • Tail Suspension Test (TST)

CRS mice [4] = test: Forced Swim Test (FST) in CRS mice; assay type: in vivo, BALB/c mice; conditions: CBC 20 mg/kg; for anti-depressive effect (reduction of immobility time and greater movement distance in FST): CBD 10 mg/kg, CBD+CBC 10 and 20 mg/kg
Procedure: as §1, §2
D19: Forced swim test (FST).
as §3, §4, §5, §6, §7, §8

rodents [5] = conditions: cited from earlier work
CB1 receptors = CB1 receptors (Homo sapiens, UniProt P21554); conditions: cited from earlier work
CB1 receptors, sequence (P21554 whole entry): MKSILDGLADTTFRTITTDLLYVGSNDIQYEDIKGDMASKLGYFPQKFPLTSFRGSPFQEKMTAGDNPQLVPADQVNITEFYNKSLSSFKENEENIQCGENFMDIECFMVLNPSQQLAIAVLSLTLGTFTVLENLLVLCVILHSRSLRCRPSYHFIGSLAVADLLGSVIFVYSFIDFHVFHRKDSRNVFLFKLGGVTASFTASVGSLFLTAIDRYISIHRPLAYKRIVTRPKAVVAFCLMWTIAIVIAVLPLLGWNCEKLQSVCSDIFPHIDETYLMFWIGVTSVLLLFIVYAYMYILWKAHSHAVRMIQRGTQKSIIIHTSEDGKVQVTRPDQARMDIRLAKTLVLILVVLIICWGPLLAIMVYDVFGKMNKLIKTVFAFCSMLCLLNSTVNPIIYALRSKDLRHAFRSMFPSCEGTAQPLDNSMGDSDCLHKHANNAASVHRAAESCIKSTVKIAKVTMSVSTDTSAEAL

CB2 receptors = CB2 receptors (Homo sapiens, UniProt P34972); conditions: read-out: affinity (Ki) for CB2 receptors; cited from earlier work
CB2 receptors, sequence (P34972 whole entry): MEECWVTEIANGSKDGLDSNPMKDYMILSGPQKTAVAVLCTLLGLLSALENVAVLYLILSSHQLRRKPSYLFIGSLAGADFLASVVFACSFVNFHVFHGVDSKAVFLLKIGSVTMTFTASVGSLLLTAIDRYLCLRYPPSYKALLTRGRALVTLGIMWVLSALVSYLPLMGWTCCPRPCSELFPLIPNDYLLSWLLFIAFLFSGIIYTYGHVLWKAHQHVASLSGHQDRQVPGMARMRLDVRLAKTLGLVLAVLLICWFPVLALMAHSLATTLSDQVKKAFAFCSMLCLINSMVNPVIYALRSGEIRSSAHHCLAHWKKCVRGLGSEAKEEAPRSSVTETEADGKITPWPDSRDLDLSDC

rodents [6] = conditions: in vivo; cited from earlier work

C=C(C)[C@@H]1CCC(C)=C[C@H]1c1c(O)cc(CCCCC)cc1O [CBD, cannabidiol, reference compound]
dose showing anti-inflammatory and immunomodulatory effects (rats): 5 to 20 mg/kg
anti-anxiety effect ([1]; high dose (100 mg/kg)): failed
anti-anxiety effect ([1]; low dose (10 mg/kg)): effective
dose causing decreased locomotor activity [2]: 200 mg/kg
mobility in Elevated Plus Maze (EPM) (CRS mice [3]): significantly higher mobility
anti-depressive effect (reduction of immobility time and greater movement distance in FST) (CRS mice [4]): significant anti-depressive effect
change on TST (rodents [5]; at any dose): did not cause a significant change

CCCCCc1cc(O)c2c(c1)OC(C)(CCC=C(C)C)C=C2 (stereo not drawn) [CBC, cannabichromene]
concentration at which it binds to CB1 receptors (CB1 receptors): higher than 1 micromolar
dose causing decreased locomotor activity [2]: 80 mg/kg and 100 mg/kg
Ki (CB2 receptors): ~100 nM
mobility in Elevated Plus Maze (EPM) (CRS mice [3]): significantly higher mobility
dose with significant antidepressant effect on FST (rodents [6]): 20 mg/kg
FST immobility compared to Vehicle (CRS mice [4]; CBD+CBC 10+20 mg/kg): marked reduction of immobility
anti-depressive effect (reduction of immobility time and greater movement distance in FST) (CRS mice [4]): significant anti-depressive effect
dose with significant antidepressant effect on TST (rodents [5]; in vivo): 40 mg/kg and 80 mg/kg
